These are literature values, as cited in patent publication US20120328537A1, “Topical wound management formulation” (priority 2011, published 2012).

This data set relates to Strep Mutans. The note with it: in particular Strep Mutans, the main bacteria responsible for dental caries.

For `OC[C@@H](O)[C@H](O)[C@@H](O)CO` [Xylitol], the growth of bacteria result is reported as “inhibit the growth of bacteria”.
